Data on 17 compounds can be found in patent US6057311A, “Benzodiazonine derivatives binding to cholecystokinin or gastrin receptors” (James Black Foundation Limited, priority 1996, dated 2000).

Structures are written as SMILES.

Test [1] has as its target T1, CCKB receptor (Mus musculus, UniProt P56481).
T1 construct: The cortex was dissected, weighed and homogenised in 40 ml ice-cold buffer; tissue Charles River (animals); host or cells: cerebral cortex of male CD1 mice, membranes
T1 sequence (P56481 1-453): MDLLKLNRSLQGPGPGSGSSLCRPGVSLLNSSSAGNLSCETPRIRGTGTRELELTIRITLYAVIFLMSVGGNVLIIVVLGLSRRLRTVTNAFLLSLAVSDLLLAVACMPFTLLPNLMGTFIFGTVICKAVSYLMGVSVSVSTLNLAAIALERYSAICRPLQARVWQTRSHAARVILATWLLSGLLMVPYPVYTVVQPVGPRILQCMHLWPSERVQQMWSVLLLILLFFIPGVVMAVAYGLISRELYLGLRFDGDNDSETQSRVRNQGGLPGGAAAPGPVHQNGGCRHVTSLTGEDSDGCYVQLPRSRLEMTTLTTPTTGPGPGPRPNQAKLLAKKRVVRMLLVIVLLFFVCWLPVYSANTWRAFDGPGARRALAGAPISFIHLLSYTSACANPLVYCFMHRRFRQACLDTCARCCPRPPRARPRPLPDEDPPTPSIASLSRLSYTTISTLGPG
The test can be described thus: radioligand binding assay at the CCKB receptor in mouse cortical membranes ([125I]-CCK8S). The following applies: [125I]-CCK8S 200 pM, 150 min at 21±3° C.; for Ki: pH 7.2, read-out: pKi (Mouse cortex) (converted); for pKi (Mouse cortex): pH 7.2. The gist of the method: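 Male CD1 mouse cortical membranes (2 mg/ml original wet weight) were incubated 150 min at 21±3 °C in HEPES buffer pH 7.2 (130 mM NaCl, 4.7 mM KCl, 5 mM MgCl2, 1 mM EDTA, bacitracin) with [125I]-CCK8S and competitor. Non-specific binding was defined with L-365,260; bound label was measured by GF/B filtration and gamma counting.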

Test [2] concerns the target T2, CCKA (Cavia porcellus, UniProt Q63931).
T2 construct: The pancreatata were removed from male guinea-pigs; from tissue; host or cells: pancreas of male Dunkin Hartley guinea pigs, membranes
T2 sequence (Q63931 1-430): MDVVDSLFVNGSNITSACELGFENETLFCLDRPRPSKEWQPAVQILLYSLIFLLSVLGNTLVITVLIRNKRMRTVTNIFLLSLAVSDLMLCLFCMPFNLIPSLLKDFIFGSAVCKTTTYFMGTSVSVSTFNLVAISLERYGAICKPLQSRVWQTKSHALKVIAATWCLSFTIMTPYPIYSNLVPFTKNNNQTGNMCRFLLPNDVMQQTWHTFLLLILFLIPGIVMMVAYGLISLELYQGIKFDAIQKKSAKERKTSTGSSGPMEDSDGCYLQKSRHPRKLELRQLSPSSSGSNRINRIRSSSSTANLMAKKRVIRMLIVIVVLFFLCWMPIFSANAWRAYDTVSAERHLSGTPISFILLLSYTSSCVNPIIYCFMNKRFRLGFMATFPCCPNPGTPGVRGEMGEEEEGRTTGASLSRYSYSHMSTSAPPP
The test can be described thus: CCKA binding assay, guinea pig pancreas membranes ([125I]-CCK8(S)). The following applies: [125I]-CCK8(S) 200 pM, 0.375 μM PD134,308, 150 min at 21±3° C.; for Ki: pH 7.2, read-out: pKi (Guinea pig pancreas) (converted); for pKi (Guinea pig pancreas): pH 7.2. Here is the method:
The compounds of the examples were also tested in a CCKA binding assay as follows:
The pancreatata were removed from male guinea-pigs (200-300 g; Dunkin Hartley) and placed in ice-cold HEPES buffer (pH 7.2@21±3° C.). The pancreatata were homogenised in 40 ml ice-cold HEPES buffer using a polytron (Brinkmann, PT10, setting 10) 4×1 second. The homogenate was centrifuged at 39,800 g for 15 min at 4° C. The supernatant was discarded and the pellet re-suspended using a Teflon-in-glass homogeniser in 20 volumes of fresh buffer and re-centrifuged as above. The final pellet was re-suspended using a Teflon-in-glass homogeniser to a tissue concentration of 1 mg.ml^-1 (original wet weight), and filtered through 500 μm pore-size Nytex mesh.
The membranes (400 μl; containing 0.375 μM PD134,308) were incubated for 150 minutes at 21±3° C. in a final volume of 0.5 ml with HEPES buffer containing [^125 I]-CCK8 (S) (50 μl; 200 pM) and competing compound. Total and non-specific binding of [^125 I]-CCK8 (S) were defined using 50 μl of buffer and 50 μl of 100 nM L-364,718 respectively. The assay was terminated by rapid filtration through pre-soaked Whatman GF/B filters using a Brandell Cell Harvester. The filters were washed (3×3 ml) with ice-cold 50 mM Tris HCl (pH 7.4 at 4° C.) and bound radioactivity was determined by counting (1 min) in a gamma counter.

Take `O=C1C[C@@H](C(=O)O)N(C(=O)OCc2ccccc2)[C@H](CC23CC4CC(CC(C4)C2)C3)C(=O)N(Cc2ccccc2)c2ccccc21` [Example 20, (3R,5S)-3-(1-adamantyl)methyl-1-benzyl-4-benzyloxycarbonyl-2,7dioxo-2,3,4,5,6,7-hexahydro-1H-1,4-benzodiazonine-5-carboxylate]: the Ki in test [1] was 3.16 µM; in test [2], 3.98 µM.

As for `CC(=O)N1[C@H](CC23CC4CC(CC(C4)C2)C3)C(=O)N(C)c2ccccc2C(=O)C[C@H]1C(=O)O` [Example 21, (3R,5S)-4-acetyl-3-(1-adamantyl)methyl-1-methyl-2,7-dioxo-2;3,4,5,6,7-hexahydro-1H-1,4-benzodiazonine-5-carboxylate], the Ki in test [1] is 7.94 µM; in test [2], 6.31 µM.

As to `CC(=O)N1[C@H](CC23CC4CC(CC(C4)C2)C3)C(=O)N(Cc2ccccc2)c2ccccc2C(=O)C[C@H]1C(=O)NCC(=O)O` [Example 22, (3R,5S)-4-acetyl-3-(1-adamantyl)methyl-1-benzyl-5-carboxymethylaminocarbonyl-2,7-dioxo-2,3,4,5,6,7-hexahydro-1H-1,4-benzodiazonine], the Ki was 0.2 µM in test [1] and 10 µM in test [2].

On to `CC(=O)N1[C@H](CC23CC4CC(CC(C4)C2)C3)C(=O)N(Cc2ccccc2)c2ccccc2C(=O)C[C@H]1C(=O)NCCC(=O)O` [Example 23, (3R,5S)-4-acetyl-3-(1-adamantyl)methyl-1-benzyl-5-(2-carboxy)ethylaminocarbonyl-2,7-dioxo-2,3,4,5,6,7-hexahydro-1H-1,4-benzodiazonine], for which the Ki in test [1] is 1 µM; in test [2], 10 µM.

Regarding `CC(=O)N1[C@H](CC23CC4CC(CC(C4)C2)C3)C(=O)N(Cc2ccccc2)c2ccccc2C(=O)C[C@H]1C(=O)N[C@@H](C)C(=O)O` [Example 24, (3R,5S)-4-acetyl-3-(1-adamantyl)methyl-1-benzyl-5-[(1S)-carboxy]ethylaminocarbonyl-2,7-dioxo-2,3,4,5,6,7-hexahydro-1H-1,4-benzodiazonine], the “pKi (Mouse cortex)” value in test [1] turned out to be 6.9. The “pKi (Guinea pig pancreas)” value in test [2] stood at 5.0.

Take `CC(=O)N1[C@H](CC23CC4CC(CC(C4)C2)C3)C(=O)N(Cc2ccccc2)c2ccccc2C(=O)C[C@H]1C(=O)N[C@H](C)C(=O)O` [Example 25, (3R,5S)-4-acetyl-3-(1-adamantyl)methyl-1-benzyl-5-[(1R)-carboxy]ethylaminocarbonyl-2,7-dioxo-2,3,4,5,6,7-hexahydro-1H-1,4-benzodiazonine]: the figures for the Ki in test [1] and in test [2] were 0.398 µM and 6.31 µM, respectively.

Take `CC(=O)N1[C@H](CC23CC4CC(CC(C4)C2)C3)C(=O)N(Cc2ccccc2)c2ccccc2C(=O)C[C@H]1C(=O)NC(C)(C)C(=O)O` [Example 26, (3R,5S)-4-acetyl-3-(1-adamantyl)methyl-1-benzyl-5-(1-carboxy-1-methyl)ethylaminocarbonyl-2,7-dioxo-2,3,4,5,6,7-hexahydro-1H-1,4-benzodiazonine]: the Ki is 1 µM in test [1] and 6.31 µM in test [2].

Take `COc1ccc(CN2C(=O)[C@@H](CC34CC5CC(CC(C5)C3)C4)N(C(C)=O)[C@H](C(=O)Nc3cc(C(=O)O)cc(C(=O)O)c3)CC(=O)c3ccccc32)cc1` [Example 31]: the Ki is 1.58 µM in test [1] and 6.31 µM in test [2].

As to `CC(=O)N1[C@H](CC23CC4CC(CC(C4)C2)C3)C(=O)N(C)c2ccccc2C(=O)C[C@H]1C(=O)NCC(=O)O` [Example 32, (3R,5S)-4-acetyl-3-(1-adamantyl)methyl-5-carboxymethylaminocarbonyl-1-methyl-2,7-dioxo-2,3,4,5,6,7-hexahydro-1H-1,4-benzodiazonine], the Ki was 5.01 µM in test [1] and 10 µM in test [2].

`CC(=O)N1[C@@H](C(=O)NCC(=O)O)CC(=O)c2ccccc2N(Cc2ccccc2)C(=O)[C@@H]1CC12CC3CC(CC(C3)C1)C2` [Example 36, (3S,5R)-4-acetyl-3-(1-adamantyl)methyl-1-benzyl-5-carboxymethylaminocarbonyl-2,7-dioxo-2,3,4,5,6,7-hexahydro-1H-1,4-benzodiazonine]: the results for the Ki in test [1] and in test [2] were 3.16 µM and 5.01 µM, respectively.

`COC(=O)CNC(=O)[C@@H]1CC(=O)c2ccccc2N(Cc2ccccc2)C(=O)[C@@H](CC23CC4CC(CC(C4)C2)C3)N1C(C)=O` [Example 37, (3R,5S)-4-acetyl-3-(1-adamantyl)methyl-1-benzyl-5-methoxycarbonylmethylaminocarbonyl-2,7-dioxo-2,3,4,5,6,7-hexahydro-1H-1,4-benzodiazonine]: the Ki in test [1] is 1.58 µM; in test [2], 6.31 µM.

With `CC(=O)N1[C@H](CCC(C)C)C(=O)N(Cc2ccccc2)c2ccccc2C(=O)C[C@H]1C(=O)NCC(=O)O` [Example 38, (3R,5S)-4-acetyl-1-benzyl-5-carboxymethylaminocarbonyl-3-(3,3-dimethyl)propyl-2,7-dioxo-2,3,4,5,6,7-hexahydro-1H-1,4-benzodiazonine], the “pKi (Mouse cortex)” value in test [1] is reported as 5.3. For the same compound, the “pKi (Guinea pig pancreas)” value in test [2] is 5.0.

For `CC(=O)N1[C@H](CC2CCCCCC2)C(=O)N(Cc2ccccc2)c2ccccc2C(=O)C[C@H]1C(=O)NCC(=O)O` [Example 39, (3R,5S)-4-acetyl-1-benzyl-5-carboxymethylaminocarbonyl-3-cycloheptylmethyl-2,7-dioxo-2,3,4,5,6,7-hexahydro-1H-1,4-benzodiazonine], the “pKi (Mouse cortex)” value in test [1] came to 5.6. For the same compound, the “pKi (Guinea pig pancreas)” value in test [2] worked out at 5.0.

For the compound `CC(=O)N1[C@H](CC2CCCCC2)C(=O)N(Cc2ccccc2)c2ccccc2C(=O)C[C@H]1C(=O)NCC(=O)O` [Example 40, (3R,5S)-4-acetyl-1-benzyl-5-carboxymethylaminocarbonyl-3-cyclohexylmethyl-2,7-dioxo-2,3,4,5,6,7-hexahydro-1H-1,4-benzodiazonine], in test [1], the “pKi (Mouse cortex)” value is reported as 5.4. The “pKi (Guinea pig pancreas)” value in test [2] turned out to be 4.7.

Take `CC(=O)N1[C@H](CC23CC4CC(CC(C4)C2)C3)C(=O)N(Cc2ccccc2)c2ccccc2C(=O)C[C@H]1C(=O)NCC(=O)NS(C)(=O)=O` [Example 41, (3R,5S)-4-acetyl-3-(1-adamantyl)methyl-1-benzyl-5-methanesulphonamidocarboxymethylaminocarbonyl-2,7-dioxo-2,3,4,5,6,7-hexahydro-1H-1,4-benzodiazonine]: the Ki is 0.398 µM in test [1] and 10 µM in test [2].

As to `CC(C)(C)OC(=O)CN1C(=O)CN(C(=O)OCc2ccccc2)CCC(=O)c2ccccc21` [Example 42, 4-benzyloxycarbonyl-1-tert-butyloxycarbonylmethyl-2,7-dioxo-2,3 4,5,6,7-hexahydro-1H-1,4-benzodiazonine], the Ki in test [1] is 20 µM; in test [2], 10 µM.

In the case of `CC(C)(C)OC(=O)CN1C(=O)CN(C(=O)Oc2ccccc2)CCC(=O)c2ccccc21` [Example 43], the Ki is 15.8 µM in test [1] and 10 µM in test [2].
